From US8597620B2, “Composition comprising a tocopherol phosphate and preparation process” (LVMH Recherche, priority 2010, dated 2013)

Assay: Assaying of tocopherol phosphate by HPLC in the concentrated aqueous solution (state of dissolution)
Assay type: physicochemical
Details: concentrated aqueous solution of Example 1 (3.5% PPG-6-Decyltetradeceth-20, 17.4% 1,2-pentanediol, 8.7% γ-TPNa added, water), UV 290 nm, ambient temperature
Procedure: Method for the Assaying of Tocopherol Phosphate by HPLC
The concentrated solution of γ-TPNa obtained in Example 1 and the compositions prepared in Examples 2 to 5 are assayed for tocopherol phosphate by HPLC according to the following conditions:
Elution gradient:—Eluent A: sodium acetate/acetic acid buffer pH 4.2 • Eluent B=methanol/THF (80/20)
Preparation of the Solutions
Diluent: Eluent A/eluent B (20/80 v/v)
Standard solution for the calibration=solution of γ-TPNa at 0.08 mg/ml of diluent.
Solution for the assaying of the concentrated solution (Ex. 1):
100 mg of the concentrated aqueous solution are withdrawn and diluted in 100 ml of diluent.

Question: Which “Result of the assaying of the γ-TPNa in the concentrated solution (dissolved amount)” value does the source give for `Cc1c(OP(=O)([O-])[O-])cc2c(c1C)OC(C)(CCCC(C)CCCC(C)CCCC(C)C)CC2.[Na+].[Na+]` (stereo not shown) [γ-TPNa, Sodium salt of γ-tocopherol phosphate] here?
Answer: 8.7 % by weight
